Test [1] can be described thus: Agonist activity at human PGI2 receptor assessed as inhibition of ADP-induced platelet aggregation.
A short description of test [2]: Agonist activity at rat PGI2 receptor assessed as inhibition of ADP-induced platelet aggregation.

The term IC50 denotes the point on the concentration scale where inhibition reaches its midpoint.

`O=C(O)COc1cccc(C[C@@H]2CCC[C@H]2c2nc(-c3ccccc3)c(-c3ccccc3)o2)c1` [sodium 2-(3-(((1S,2R)-2-(4,5-diphenyloxazol-2-yl)cyclopentyl)methyl)phenoxy)acetate]: the IC50 in test [1] was found to be 39 nM. Regarding `O=C(O)COc1cccc(CN2CCC[C@H]2c2nc(-c3ccccc3)c(-c3ccccc3)o2)c1` [sodium (S)-2-(3-((2-(4,5-diphenyloxazol-2-yl)pyrrolidin-1-yl)methyl)phenoxy)acetate], the IC50 in test [2] was > 10000 nM; in test [1], 58 nM. Consider `O=C(O)COc1cccc(C[C@@H]2CCCC[C@@H]2c2nc(-c3ccccc3)c(-c3ccccc3)o2)c1` [sodium 2-(3-(((1S,2S)-2-(4,5-diphenyloxazol-2-yl)cyclohexyl)methyl)phenoxy)acetate], for which the IC50 in test [1] was determined as 115 nM.

On to `O=C(O)COc1cccc(C[C@@H]2CCCC[C@H]2c2nc(-c3ccccc3)c(-c3ccccc3)o2)c1` [sodium 2-(3-(((1S,2R)-2-(4,5-diphenyloxazol-2-yl)cyclohexyl)methyl)phenoxy)acetate], for which the IC50 in test [1] stood at 114 nM. As to `O=C(O)COc1cccc(CC2=C(c3nc(-c4ccccc4)c(-c4ccccc4)o3)CCCC2)c1` [sodium 2-(3-((2-(4,5-diphenyloxazol-2-yl)cyclohex-1-enyl)methyl)phenoxy)acetate], the IC50 in test [1] was determined as 533 nM. Take `O=C(O)COc1cccc(Cc2ccccc2-c2nc(-c3ccccc3)c(-c3ccccc3)o2)c1` [sodium 2-(3-(2-(4,5-diphenyloxazol-2-yl)benzyl)phenoxy)acetate]: the IC50 in test [1] worked out at 930 nM. Same read-out and setting: the value for `O=C(O)COc1cccc(C[C@@H]2CCC[C@@H]2c2nc(-c3ccccc3)c(-c3ccccc3)o2)c1` [sodium 2-(3-(((1S,2S)-2-(4,5-diphenyloxazol-2-yl)cyclopentyl)methyl)phenoxy)acetate] was 53 nM. On to `O=C(O)COc1cccc(CN2CCC[C@@H]2c2nc(-c3ccccc3)c(-c3ccccc3)o2)c1` [sodium (R)-2-(3-((2-(4,5-diphenyloxazol-2-yl)pyrrolidin-1-yl)methyl)phenoxy)acetate], for which the IC50 in test [2] is 700 nM; in test [1], 48 nM. On the same counts, the results for `O=C(O)COc1cccc(CC2CCCC=C2c2nc(-c3ccccc3)c(-c3ccccc3)o2)c1` [Sodium; {3-[(R)-2-(4,5-diphenyl-oxazol-2-yl)-cyclohex-2-enylmethyl]-phenoxy}-acetate] are 1200 nM and 60 nM.

The record behind these values is BindingDB's records for doi:10.1016/j.bmcl.2006.06.076 (Fujisawa Pharmaceutical, 2006).
